# Experimental data published in ChEMBL document CHEMBL1201862, “PubChem BioAssay data set” (2004).
#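 A five-concentration, 48-hour dose response in 96-well plates underlies each endpoint, interpolated linearly between surrounding concentrations. GI50 is the concentration that inhibits growth by half.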 The source made the active and inactive calls. No stated cut-off is given here; in the data, active = GI50 up to about 1.1 µM and inactive = higher.
# Experiments:
# Assay in all cases: DTP human tumour cell line panel, 48 h
# SR = test system: SR
# T47D = test system: T47D
# SK-MEL-5 = test system: SK-MEL-5
# SK-MEL-28 = test system: SK-MEL-28
# HT-29 = test system: HT-29
# SF-539 = test system: SF-539
# Hs-578T = test system: Hs-578T
# HCT-15 = test system: HCT-15
# UACC-62 = test system: UACC-62
# SF-268 = test system: SF-268
# SN12C = test system: SN12C
# SNB-75 = test system: SNB-75
# IGROV-1 = test system: IGROV-1
# M14 = test system: M14
# U-251 = test system: U-251
# SK-OV-3 = test system: SK-OV-3
# MCF7 = test system: MCF7
# CCRF-CEM = test system: CCRF-CEM
# SNB-19 = test system: SNB-19
# UACC-257 = test system: UACC-257
# DU-145 = test system: DU-145
# 786-0 = test system: 786-0
# OVCAR-8 = test system: OVCAR-8
# MDA-N = test system: MDA-N
# A498 = test system: A498
# SW-620 = test system: SW-620
# SF-295 = test system: SF-295
# Malme-3M = test system: Malme-3M
# ACHN = test system: ACHN
# OVCAR-3 = test system: OVCAR-3
# NCI-H460 = test system: NCI-H460
# BT-549 = test system: BT-549
# HOP-62 = test system: HOP-62
# HCT-116 = test system: HCT-116
# NCI-H23 = test system: NCI-H23
# MDA-MB-231 = test system: MDA-MB-231
# A549 = test system: A549
# MOLT-4 = test system: MOLT-4
# OVCAR-5 = test system: OVCAR-5
# SK-MEL-2 = test system: SK-MEL-2
# NCI-H522 = test system: NCI-H522
# NCI-H226 = test system: NCI-H226
# HL-60 = test system: HL-60
# PC-3 = test system: PC-3
# MDA-MB-435 = test system: MDA-MB-435
# HCC 2998 = test system: HCC 2998
# CAKI-1 = test system: CAKI-1
# KM12 = test system: KM12
# K562 = test system: K562
# TK-10 = test system: TK-10
# UO-31 = test system: UO-31
# COLO 205 = test system: COLO 205
# NCI/ADR-RES = test system: NCI/ADR-RES
# LOX IMVI = test system: LOX IMVI
# EKVX = test system: EKVX
# HOP-92 = test system: HOP-92
# OVCAR-4 = test system: OVCAR-4
# RPMI-8226 = test system: RPMI-8226
# RXF 393 = test system: RXF 393
structure (smiles),measurement,setting,value
O=C(O)Cn1ccc(=O)c2c([N+](=O)[O-])cccc21,GI50,SR,> 100 µM (inactive)
same,GI50,T47D,> 100 µM (inactive)
same,GI50,SK-MEL-5,> 100 µM (inactive)
same,GI50,SK-MEL-28,> 100 µM (inactive)
same,GI50,HT-29,> 100 µM (inactive)
same,GI50,SF-539,> 100 µM (inactive)
same,GI50,Hs-578T,> 100 µM (inactive)
same,GI50,HCT-15,> 100 µM
same,GI50,UACC-62,> 100 µM (inactive)
same,GI50,SF-268,> 100 µM (inactive)
same,GI50,SN12C,> 100 µM (inactive)
same,GI50,SNB-75,> 100 µM (inactive)
same,GI50,IGROV-1,> 100 µM (inactive)
same,GI50,M14,> 100 µM (inactive)
same,GI50,U-251,> 100 µM (inactive)
same,GI50,SK-OV-3,> 100 µM (inactive)
same,GI50,MCF7,> 100 µM (inactive)
same,GI50,CCRF-CEM,> 100 µM (inactive)
same,GI50,SNB-19,> 100 µM (inactive)
same,GI50,UACC-257,> 100 µM (inactive)
same,GI50,DU-145,> 100 µM (inactive)
same,GI50,786-0,> 100 µM (inactive)
same,GI50,OVCAR-8,> 100 µM (inactive)
same,GI50,MDA-N,> 100 µM (inactive)
same,GI50,A498,> 100 µM (inactive)
same,GI50,SW-620,> 100 µM (inactive)
same,GI50,SF-295,> 100 µM (inactive)
same,GI50,Malme-3M,> 100 µM (inactive)
same,GI50,ACHN,> 100 µM (inactive)
same,GI50,OVCAR-3,> 100 µM (inactive)
same,GI50,NCI-H460,> 100 µM (inactive)
same,GI50,BT-549,> 100 µM (inactive)
same,GI50,HOP-62,> 100 µM (inactive)
same,GI50,HCT-116,> 100 µM (inactive)
same,GI50,NCI-H23,> 100 µM (inactive)
same,GI50,MDA-MB-231,> 100 µM (inactive)
same,GI50,A549,> 100 µM (inactive)
same,GI50,MOLT-4,> 100 µM (inactive)
same,GI50,OVCAR-5,> 100 µM (inactive)
same,GI50,SK-MEL-2,> 100 µM (inactive)
same,GI50,NCI-H522,> 100 µM (inactive)
same,GI50,NCI-H226,> 100 µM (inactive)
same,GI50,HL-60,> 100 µM (inactive)
same,GI50,PC-3,> 100 µM (inactive)
same,GI50,MDA-MB-435,> 100 µM (inactive)
same,GI50,HCC 2998,> 100 µM (inactive)
same,GI50,CAKI-1,> 100 µM (inactive)
same,GI50,KM12,> 100 µM (inactive)
same,GI50,K562,> 100 µM (inactive)
same,GI50,TK-10,> 100 µM (inactive)
same,GI50,UO-31,> 100 µM (inactive)
same,GI50,COLO 205,> 100 µM (inactive)
same,GI50,NCI/ADR-RES,> 100 µM (inactive)
Cc1cc(C)nc(NS(=O)(=O)c2ccc(NNc3c4ccccc4nc4c(C(=O)Nc5ccc(S(=O)(=O)Nc6cc(C)on6)cc5)cccc34)cc2)n1,GI50,SR,24.9 µM (inactive)
same,GI50,T47D,33.5 µM (inactive)
same,GI50,SK-MEL-5,31.3 µM (inactive)
same,GI50,HT-29,23.2 µM (inactive)
same,GI50,SF-539,34.9 µM (inactive)
same,GI50,Hs-578T,51.4 µM (inactive)
same,GI50,HCT-15,51.1 µM
same,GI50,UACC-62,46.3 µM (inactive)
same,GI50,SF-268,27.4 µM (inactive)
same,GI50,SN12C,37 µM (inactive)
same,GI50,SNB-75,30.9 µM (inactive)
same,GI50,IGROV-1,29 µM (inactive)
same,GI50,M14,53.2 µM (inactive)
same,GI50,U-251,26.7 µM (inactive)
same,GI50,LOX IMVI,32.3 µM (inactive)
same,GI50,SK-OV-3,29 µM (inactive)
same,GI50,MCF7,50.8 µM (inactive)
same,GI50,CCRF-CEM,23.1 µM (inactive)
same,GI50,SNB-19,48 µM (inactive)
same,GI50,UACC-257,73.6 µM (inactive)
same,GI50,DU-145,49.2 µM (inactive)
same,GI50,786-0,51.6 µM (inactive)
same,GI50,OVCAR-8,35.6 µM (inactive)
same,GI50,MDA-N,44.2 µM (inactive)
same,GI50,EKVX,19.2 µM (inactive)
same,GI50,SW-620,39.5 µM (inactive)
same,GI50,SF-295,57.1 µM (inactive)
same,GI50,Malme-3M,53.7 µM (inactive)
same,GI50,ACHN,31.3 µM (inactive)
same,GI50,OVCAR-3,20.4 µM (inactive)
same,GI50,HOP-92,23.7 µM (inactive)
same,GI50,NCI-H460,40.9 µM (inactive)
same,GI50,BT-549,72.1 µM (inactive)
same,GI50,HOP-62,82 µM (inactive)
same,GI50,HCT-116,31.3 µM (inactive)
same,GI50,NCI-H23,46.8 µM (inactive)
same,GI50,OVCAR-4,46.3 µM (inactive)
same,GI50,RPMI-8226,42.9 µM (inactive)
same,GI50,MDA-MB-231,33.1 µM (inactive)
same,GI50,A549,> 100 µM (inactive)
same,GI50,MOLT-4,32.5 µM (inactive)
same,GI50,OVCAR-5,23.9 µM (inactive)
same,GI50,SK-MEL-2,22.7 µM (inactive)
same,GI50,NCI-H522,28.2 µM (inactive)
same,GI50,NCI-H226,25.8 µM (inactive)
same,GI50,HL-60,30.8 µM (inactive)
same,GI50,PC-3,34.8 µM (inactive)
same,GI50,RXF 393,44.1 µM (inactive)
same,GI50,MDA-MB-435,41.5 µM (inactive)
same,GI50,HCC 2998,23.2 µM (inactive)
same,GI50,CAKI-1,87.5 µM (inactive)
same,GI50,KM12,39.4 µM (inactive)
same,GI50,K562,34.5 µM (inactive)
same,GI50,TK-10,54.1 µM (inactive)
same,GI50,UO-31,34.7 µM (inactive)
same,GI50,COLO 205,36.4 µM (inactive)
same,GI50,NCI/ADR-RES,> 100 µM (inactive)
S=CN1CCCCC1,GI50,SR,> 100 µM (inactive)
same,GI50,T47D,> 100 µM (inactive)
same,GI50,SK-MEL-5,> 100 µM (inactive)
same,GI50,SK-MEL-28,> 100 µM (inactive)
same,GI50,HT-29,> 100 µM (inactive)
same,GI50,SF-539,> 100 µM (inactive)
same,GI50,Hs-578T,> 100 µM (inactive)
same,GI50,HCT-15,> 100 µM
same,GI50,UACC-62,> 100 µM (inactive)
same,GI50,SF-268,> 100 µM (inactive)
same,GI50,SN12C,> 100 µM (inactive)
same,GI50,SNB-75,> 100 µM (inactive)
same,GI50,IGROV-1,> 100 µM (inactive)
same,GI50,M14,> 100 µM (inactive)
same,GI50,U-251,> 100 µM (inactive)
same,GI50,LOX IMVI,> 100 µM (inactive)
same,GI50,SK-OV-3,> 100 µM (inactive)
same,GI50,MCF7,> 100 µM (inactive)
same,GI50,CCRF-CEM,> 100 µM (inactive)
same,GI50,SNB-19,> 100 µM (inactive)
same,GI50,UACC-257,> 100 µM (inactive)
same,GI50,DU-145,> 100 µM (inactive)
same,GI50,786-0,> 100 µM (inactive)
same,GI50,OVCAR-8,> 100 µM (inactive)
same,GI50,MDA-N,> 100 µM (inactive)
same,GI50,EKVX,> 100 µM (inactive)
same,GI50,A498,> 100 µM (inactive)
same,GI50,SW-620,> 100 µM (inactive)
same,GI50,SF-295,> 100 µM (inactive)
same,GI50,Malme-3M,> 100 µM (inactive)
same,GI50,ACHN,> 100 µM (inactive)
same,GI50,OVCAR-3,> 100 µM (inactive)
same,GI50,NCI-H460,> 100 µM (inactive)
same,GI50,BT-549,> 100 µM (inactive)
same,GI50,HOP-62,> 100 µM (inactive)
same,GI50,HCT-116,> 100 µM (inactive)
same,GI50,NCI-H23,> 100 µM (inactive)
same,GI50,RPMI-8226,> 100 µM (inactive)
same,GI50,MDA-MB-231,> 100 µM (inactive)
same,GI50,A549,> 100 µM (inactive)
same,GI50,MOLT-4,> 100 µM (inactive)
same,GI50,OVCAR-5,> 100 µM (inactive)
same,GI50,SK-MEL-2,> 100 µM (inactive)
same,GI50,NCI-H522,> 100 µM (inactive)
same,GI50,NCI-H226,> 100 µM (inactive)
same,GI50,HL-60,> 100 µM (inactive)
same,GI50,PC-3,> 100 µM (inactive)
same,GI50,MDA-MB-435,> 100 µM (inactive)
same,GI50,HCC 2998,> 100 µM (inactive)
same,GI50,CAKI-1,> 100 µM (inactive)
same,GI50,KM12,> 100 µM (inactive)
same,GI50,K562,> 100 µM (inactive)
same,GI50,TK-10,> 100 µM (inactive)
same,GI50,UO-31,> 100 µM (inactive)
same,GI50,COLO 205,> 100 µM (inactive)
same,GI50,NCI/ADR-RES,> 100 µM (inactive)
